# Assay results from US20230087766A1, “METHODS OF REACTIVATING LATENT HUMAN IMMUNODEFICIENCY VIRUS AND RELATED COMPOSITIONS” (priority 2017, published 2023).
# Legend:
# Type in all cases: cell-based
# [1] = tested on: latent HIV (HIV LTR-driven transcription) in J-Lat A1 cells; conditions: for increase in reactivation of latent HIV in combination with Na-Cro as compared to single treatment: J-Lat A1 cells pretreated with Na-Cro, then the LRA added; for increase in reactivation of latent HIV in combination with Na-Cro as compared to single treatment / reactivation of latent HIV by epigenetic modifiers: RT-qPCR; for reactivation of latent HIV by epigenetic modifiers: 30 mM Na-Cro, 500 nM SAHA, 2 μM GSK343 or 5 μM AZA-dc
# Description: (§1) Cell culture: J-Lat Al cells (derived from Jurkat cells harboring HIV LTR-Tat-GFP gene) and U1 cells (promonocytic cell line harboring one copy of HIV genome with defective tat gene) were obtained from NIH AIDS Reagent Program and cultured at 37° C. with 5% CO2 in RPM11640 medium containing 10% FBS and 1% penicillin-streptomycin as previously described (see G. Jiang, et al. PLoS Pathogens 11, e1005066 (2015)).
# (§2) For inhibiting ACSS2 and crotonylation, cells were pretreated with ACSS2 inhibitor, AR12 (SELLECK CHEMICALS™, Houston, Tex.), for 30 minutes, followed by Na-Cro treatment for 4 or 18 hours.
# (§3) Real-Time PCR Analysis: HIV gene expression was measured using real-time PCR in J-Lat Al cells treated with LRAs. Total nucleic acid was extracted using RNEASY™ Kit, genomic DNA digested using DNase I and total RNA reverse transcribed using Superscript III to synthesize cDNA. […] […] TAMRA-3′ (SEQ ID NO:3).
# [2] = tested on: latent HIV in primary CD4+ T cells from HIV-infected patients under suppressive ART; experiment: HIV transcription by ddPCR in primary CD4+ T cells from HIV-infected patients; conditions: 6 hours
# Description: Panels A-C illustrate that primary CD4+ T cells were treated with […] PMA 2 plus 2 μg/ml ionomycin, 12 nM PEP005, 40 mM Na-Cro, or 12 nM PEP005 combined with 40 mM Na-Cro for 6 hours. Viral transcription from total RNA was analyzed by RT-ddPCR with primers targeting initiation (TAR region) (see panel A), elongation (long LTR) (see panel B), or full transcription (poly A region) (see panel C) of the HIV genome. Panel D illustrates a working model of epigenetic regulation of HIV latency/transcription by histone crotonylation.
# To validate this finding in the ex vivo primary CD4+ T cells from patients the peripheral blood samples from 6 HIV-infected patients under suppressive ART were obtained. They had undetectable plasma viral load (<20 copies/ml plasma) and >400 CD4+ T cell number per […] (see Table 1). Primary CD4+ T cells were treated with PMA/Ionomycin, PEP005, Na-Cro, or PEP005 in combination with Na-Cro for 6 hours. HIV transcription following reactivation was measured by digital droplet PCR (ddPCR) targeting TAR region (initiation), long LTR region (elongation), or Poly A region (full transcription) of HIV genome (see G. Jiang, et al. PLoS pathogens 11, e1005066 (2015); P. Kaiser, et al. Journal of virological methods 242, 1-8 (2017); and L. Shan, et al. Journal of Virology 87, 6521-6525 (2013)).
# Primary CD4+ T Cell Isolation, Treatment, and Digital Droplet PCR Assays: Peripheral blood samples were obtained from HIV-infected individuals (age ranging from 46-62 years old) on suppressive ART for >8 years (n=6). The plasma viral loads were below the detective level (<20 copies/ml plasma) and the average CD4+ T cell number was 664.4±180.5 cells/ml. The primary CD4+ T cells were isolated using the EASYSEP™ kit ([…]™ Technologies Inc., Vancouver, BC, Canada) as previously described (see G. Jiang, et al. PLoS pathogens 11, el 005066 (2015) and G. Jiang, et al. AIDS 28, 1555-1566 (2014)). The purified CD4+ T cells were plated at a density of 0.5-1×10^6 cells and treated with Control, 200 ng/ml PMA plus 2 μM lonomycin, 12 nM PEP005, 40 mM Na-Cro, or 12 nM PEP005 plus 40 mM Na-Cro for 6 hours. Cell pellets were collected for RNA isolation. Initiation, elongation, or full transcription of HIV was analyzed with ddPCR assays as reported before (see G. Jiang, et al. PLoS pathogens 11, e1005066 (2015); P. Kaiser, et al. Journal of virological methods 242, 1-8 (2017); and L. Shan, et al. Journal of virology 87, 6521-6525 (2013)).
# [3] = tested on: latent HIV in resting CD4+ T cells from HIV-infected individuals under ART; experiment: Quantitative Viral Outgrowth Assay (QVOA), p24 ELISA; conditions: resting CD4+ T cells from 5 HIV-infected individuals under ART; ex vivo
# Description: It was tested whether the histone crotonylation inducer, sodium crotonate, can reactivate latent HIV reservoirs from a patient under ART. Peripheral blood samples were obtained from 5 HIV-infected individuals with undetectable plasma viral loads and higher CD4+ T cell numbers (see Table 1). One million resting CD4+ T cells were treated with IL-2, PHA+IL-2, or IL-2+Na-Cro, and HIV p24 production was measured by QVOA using p24 ELISA as a measure of HIV reactivation.
# Quantitative Viral Outgrowth Assay: Peripheral blood mononuclear cells (PBMC) were obtained from HIV-infected individuals on suppressive ART (n=5) by continuous-flow leukopheresis. Isolation of resting CD4+ T cells and quantification of replication competent virus was performed as previously described (see S. Dandekar, et al. Current HIV/AIDS reports 4, 10-15 (2007)). […] Cultures were scored as positive if p24 was detected at day 15 and was increased in concentration at day 19. […]
# [4] = tested on: latent HIV in U1 cells; experiment: Reactivation of latent HIV in U1 cells by RT-qPCR
# Description: as §1, §2, §3
# [5] = tested on: HIV LTR in J-Lat A1 cells; experiment: Chromatin immunoprecipitation (ChIP) at the HIV LTR; conditions: pretreatment with AR12, then Na-Cro
# Excerpt: FIG. 2 is a series of images and graphs showing that histone crotonylation by sodium crotonate addition re-programs histone tails at the HIV LTR. Panel A illustrates that Na-Cro addition increased global expression of H3K4Cro, H3K4Ac, and H3K18Ac while decreasing H3K27Me3. Panel B illustrates expression of transcription factors after Na-Cro addition in J-Lat Al cells. Panels C-E illustrate that Na-Cro addition re-programmed histone tails at the HIV LTR. Chromatin immunoprecipitation (ChIP) assay was performed by using anti-H3K4Cr, anti-H3K4Ac, and anti-H3K27Me3 antibodies after J-Lat Al cells were treated with 30 mM Na-Cro for 4 hours. PCR primers were specific for the HIV LTR region.
# (§4) FIG. 7 is a series of graphs showing that induction of de-crotonylation of histone tail at HIV LTR is independent of SIRTs. Panel A illustrates that J-Lat Al cells were pre-treated with either 50 μM RSV or 1 mM NAM, followed by 30 mM Na-Cro addition to reactivate latent HIV expression. Untreated controls were compared with positive controls involving individual treatment of Na-Cro, RSV, or NAM. *, p<0.05; **, p<0.01 compared with control treatment. #, p<0.05 compared with Na-Cro treatment. Panel B illustrates that gene expression of sirt1 or sirt3 was measured by RT-qPCR in J-Lat Al cells treated with either 25 μM RSV, 50 μM RSV, or 1 mM NAM. *, p<0.05 and **, p<0.01 compared with control treatment. Panels C and D illustrate that histone crotonylation induces binding of SIRT3 and SIRT1 at the HIV LTR. J-Lat Al cells were treated with 30 mM Na-Cro for 4 hours and analyzed by ChIP assays using anti-SIRT1 or anti-SIRT3 antibodies. *, p<0.05 compared with control treatment.
# Chromatin Immunoprecipitation (ChIP): J-Lat Al cells (2.5 to 5 million) were utilized in ChIP assays with anti-H3K18Ac, anti-H3K4Cr, anti-H3K27Me3, anti-H3K4Ac, anti-SIRT3 (CELL SIGNALING TECHNOLOGY®), and anti-SIRT1 (CELL SIGNALING TECHNOLOGY®) antibodies. ChIP assays were performed using […]® Kit from CELL SIGNALING TECHNOLOGY® as per the manufacturer's recommendations. Samples were cross-linked using formaldehyde and 150-1000 bp fragments were made using Micrococcal Nuclease digestion and 7 cycles of 30 seconds on/30 seconds off sonication. Antibodies were used to probe respective proteins. Purification of DNA was performed using the […]® Kit Protocol. Purified ChIP DNA was used in SYBR® Green qPCR using ChIP primers specific for HIV LTR.
# [6] = tested on: sirt3; experiment: sirt3 gene expression by RT-qPCR in J-Lat A1 cells; conditions: 25 μM or 50 μM RSV
# Description: as §4
# [7] = primary CD4+ T cells of 6 patients, 40 mM Na-Cro or 12 nM PEP005, ddPCR
smiles,measurement,setting,value
"C/C=C(/C)C(=O)O[C@H]1C(C)=C[C@]23C(=O)[C@@H](C=C(CO)[C@@H](O)[C@]12O)[C@H]1[C@@H](C[C@H]3C)C1(C)C [PEP005, ingenol-3-angelate]",increase in reactivation of latent HIV in combination with Na-Cro as compared to single treatment,[1],8 fold
same,"elongation of HIV transcripts (long LTR), patients responding",[2]; [7],5 of 6 patient samples
same,"full-length transcription of HIV (poly A region), patients responding",[2]; [7],5 of 6 patient samples
same,"initiation of HIV transcription (TAR region), patients responding",[2]; [7],all six patients
same,"reactivation of latent HIV, combination of Na-Cro with PEP005","[2]; primary CD4+ T cells, 12 nM PEP005 combined with 40 mM Na-Cro, also higher than PMA/Ionomycin",greater reactivation of latent HIV than either agent alone
Cc1sc2c(c1C)C(c1ccc(Cl)cc1)=N[C@@H](CC(=O)OC(C)(C)C)c1nnc(C)n1-2 [JQ1],increase in reactivation of latent HIV in combination with Na-Cro as compared to single treatment,[1],1.8 fold
"O=C(CCCCCCC(=O)Nc1ccccc1)NO [SAHA, suberoylanilide hydroxamic acid]",increase in reactivation of latent HIV in combination with Na-Cro as compared to single treatment,[1],2.0 fold
same,"HIV reactivation, pretreatment with SAHA followed by Na-Cro addition","[1]; J-Lat A1 cells, 250 nM SAHA then 40 mM Na-Cro overnight",abolished the combination effect
same,reactivation of latent HIV by epigenetic modifiers,[1]; J-Lat A1 cells,comparable capacity to reactivate latent HIV
same,"replication-competent HIV recovered (HIV reactivation, QVOA)",[3],able to flush out the latent HIV in these patient cells except for one patient
same,"HIV reactivation, pretreatment with SAHA followed by Na-Cro addition",[4]; 500 nM SAHA then 40 mM Na-Cro,abolished the combination effect
same,"HIV reactivation, pretreatment with Na-Cro then SAHA, compared with SAHA alone","[4]; 40 mM Na-Cro then 500 nM SAHA, overnight, real-time PCR",enhanced SAHA-reactivation of latent HIV
CCCc1cc(C)[nH]c(=O)c1CNC(=O)c1cc(-c2ccnc(N3CCN(C)CC3)c2)cc2c1cnn2C(C)C [GSK343],synergistic effect on HIV reactivation in combination with Na-Cro,[1]; J-Lat A1 cells,did not show any synergistic effect
same,reactivation of latent HIV by epigenetic modifiers,[1]; J-Lat A1 cells,minimally reactivated latent HIV
CCC/C=C/C=C/C(=O)O[C@H]1/C(=C/C(=O)OC)C[C@H]2C[C@H]([C@@H](C)O)OC(=O)C[C@H](O)C[C@@H]3C[C@H](OC(C)=O)C(C)(C)[C@](O)(C[C@@H]4C/C(=C/C(=O)OC)C[C@H](/C=C/C(C)(C)[C@]1(O)O2)O4)O3 [bryostatin-1],increase in reactivation of latent HIV in combination with Na-Cro as compared to single treatment,[1],3.3 fold
"NCC(=O)Nc1ccc(-n2nc(C(F)(F)F)cc2-c2ccc3c(ccc4ccccc43)c2)cc1 [AR12, reference compound]",decrease in latent HIV reactivation by Na-Cro,"[1]; pretreatment with AR12 for 30 minutes, then Na-Cro",> 60%
same,histone crotonylation at HIV LTR,[5],markedly dampened
Nc1ncn([C@H]2C[C@H](O)[C@@H](CO)O2)c(=O)n1 [AZA-dC],reactivation of latent HIV by epigenetic modifiers,[1]; J-Lat A1 cells,minimally reactivated latent HIV
"NC(=O)c1cccnc1 [NAM, nicotinamide]",viral reactivation after pretreatment,"[1]; J-Lat A1 cells, 1 mM NAM pretreatment then 30 mM Na-Cro",less than 4 fold
"Oc1ccc(C=Cc2cc(O)cc(O)c2)cc1 [RSV, Resveratrol]",increase in expression of sirt3,[6],two to three
same,crotonyl-CoA-mediated latent HIV reactivation after pretreatment,"[1]; J-Lat A1 cells, 50 μM RSV pretreatment then 30 mM Na-Cro, compared to crotonyl-CoA alone",27 fold
